Tested on: parental Ba/F3 cells
Test: Proliferation of parental Ba/F3 cells
Assay type: cell-based, murine
Conditions: parental Ba/F3, with IL-3
Method: FIG. 6: Activity of Pz-1 on NCOA4-RET oncogene-driven IL-3-independent proliferation of murine Ba/F3 cells. […] Ba/F3 and Ba/F3 NCOA4-RET cells were incubated with vehicle (NT) or the indicated concentration of Pz-1 in complete medium and counted at different time points. Data are the mean±SD of one experiment performed in triplicate. Murine interleukin-3 (IL-3) dependent pro-B Ba/F3 cells were from ATCC. Ba/F3 cells stably expressing NCOA4-RET (RET/PTC3) protein were generated by transfecting long isoform (RET-51) of NCOA4-RET by electroporation. Parental and Ba/F3-NCOA4-RET cells were cultured in RPMI 1640 with 10% FBS; parental cells required also 10 ng/ml IL-3. IC50 doses (with Confidence Intervals) are indicated.
Nthy-ory-3-1 and TTcells were seeded in 60-mm dishes. Cells were kept in 2% (Nthy-ori-3-1) or 10% (TT) fetal calf serum. One day after plating, different concentrations of Pz-1 or vehicle were added to the medium and changed every 2-3 days. Cells were counted every 2-3 days. […] Parental and RET/PTC-expressing Ba/F3 were kept in 10% fetal calf serum in 6-multi wells and counted every day for 4 consecutive days, changing media every 2 days. […] IC50 doses were calculated through a curve fitting analysis from the last day of growth curves using the PRISM software program (Graphpad Software Inc). […]

**Q.** `Cn1cc(-c2ccc3c(c2)ncn3-c2ccc(CC(=O)Nc3cc(C(C)(C)C)on3)cc2)cn1` [Pz-1, N-(5-(tert-butyl)isoxazol-3-yl)-2-(4-(5-(1-methyl-1H-pyrazol-4-yl)-1H-benzo[d]imidazol-1-yl)phenyl)acetamide] was tested. Which inhibition of proliferation did it give?
**A.** inhibition of proliferation by Pz-1 for Ba/F3-NCOA4-RET but not parental Ba/F3
